Experimental data as given in patent US20100099614A1, “Antimicrobial Peptides and Methods of Use” (priority 2008, published 2010).
Values joined by “and” are separate entries in the source; they are usually repeats but may differ in a detail not shown here. Equal values may be shown once.

How the values were obtained:
[1] = tested on: human red blood cells; experiment: Hemolytic activity (MHC50/HC50), 18 h microtiter dilution; assay type: cell-based; details: for Hemolytic activity Fold (fold improvement in HC50 compared to that of D4): relative to D4
Protocol: Hemoglobin release was determined spectrophotometrically at 570 nm. […] MHC50 was determined by plot the concentration-lysis format.

[2] = tested on: Interleukin-6 (IL-6); experiment: Cytokine assay, stimulation of peripheral blood mononuclear cells, ELISA; assay type: cell-based, human
Protocol: (§1) Isolation of peripheral blood mononuclear cells (PBMCs) from 5 healthy individuals was performed as described elsewhere (108). Briefly, venous blood was drawn into 10 ml tubes containing 0.2 mg of EDTA (Monoject's-Hertogenbosch, NL). The PBMC fraction was obtained by density centrifugation of blood using Ficoll-Paque (Pharmacia Biotech AB, Sweden). […] The PBMCs were incubated in 96-well tissue culture plates (Greiner, Alphen, NL) at a concentration of 5×10^5 cells per well in a total volume of 200 μl, in the presence or absence of a set of stimuli in different experiments. […] After 24 h of incubation, the supernatants were collected and stored at -80° C. until analysis. Interleukin-6 (IL-6) and tumor necrosis factor (TNF) were measured by ELISA according to the manufacturer's protocol ([…], CLB, Amsterdam, NL). […] Agilent Technologies) with a linear AB gradient (0.2% acetonitrile/min) at a flow rate of 2 ml/min, where mobile phase A was 0.1% aqueous TFA in water and B was 0.1% TFA in acetonitrile. The purity of peptides was verified by analytical RP-HPLC. The peptides were further characterized by electrospray mass spectrometry and amino acid analysis.

[3] = tested on: tumor necrosis factor (TNF); experiment: as above; assay type: cell-based, human
Protocol: as §1

[4] = peptide concentration 0.01 μg/ml
[5] = peptide concentration 100 μg/ml

SMILES: CC[C@@H](C)[C@@H](NC(=O)[C@@H](C)NC(=O)[C@@H](CCCCN)NC(=O)[C@@H](CC(C)C)NC(=O)[C@@H](C)NC(=O)[C@H](NC(=O)[C@@H](Cc1c[nH]cn1)NC(=O)[C@@H](CC(C)C)NC(=O)[C@H](NC(=O)[C@H](NC(=O)[C@@H](CCCCN)NC(=O)[C@@H](CCCCN)NC(=O)[C@@H](C)NC(=O)[C@@H](CO)NC(=O)[C@@H](CCCCN)NC(=O)[C@@H](Cc1ccccc1)NC(=O)[C@H](NC(=O)[C@@H](CCCCN)NC(=O)[C@@H](CC(C)C)NC(=O)[C@@H](Cc1ccccc1)NC(=O)[C@@H](CO)NC(=O)[C@@H](CCCCN)NC(=O)[C@@H](Cc1c[nH]c2ccccc12)NC(=O)[C@@H](CCCCN)NC(C)=O)[C@H](C)O)[C@H](C)O)C(C)C)[C@H](C)O)C(=O)N[C@H](CO)C(=O)N[C@H](CO)C(N)=O [D1]
- Hemolytic activity HC50 ([1]; further experiments, 50% hemolysis of human red blood cells after 18 h): 421.5 µg/mL
- Hemolytic activity Fold (fold improvement in HC50 compared to that of D4) ([1]; further experiments): 120 fold
- Hemolytic activity HC50 ([1]; peptide concentration that produces 50% hemolysis of human red blood cells after 18 h, standard microtiter dilution method): 1000 µg/mL and 1000.0 µg/mL
- Hemolytic activity Fold (fold improvement in HC50 compared to that of D4) [1]: 286 fold
- IL-6 Exp 1 [2, 4]: <3 pg/mL
- IL-6 Exp 2 ([2]; peptide concentration 0.01 μg/ml, Exp 2): <3 pg/mL
- IL-6 Exp 1 [2, 5]: <3 pg/mL
- TNF Exp 1 [3, 4]: <0.015 ng/mL
- TNF Exp 2 [3, 4]: <0.015 ng/mL
- TNF Exp 1 ([3]; peptide concentration 1 μg/ml): <0.015 ng/mL
- TNF Exp 2 ([3]; peptide concentration 1 μg/ml): <0.015 ng/mL
- TNF Exp 1 [3, 5]: <0.015 ng/mL
- TNF Exp 2 [3, 5]: <0.015 ng/mL
